Where “and” joins values, the source holds several entries; their conditions need not be identical. Identical values can stand only once. Like-named read-outs stand apart in the source and are kept apart here.
Experiments:
[1] = biological target: T1, NTCP (Homo sapiens, UniProt Q14973); test: Transporter inhibition assay, NTCP; format: cell-based; details: alkaloids screened at 10 and 100 μM
T1 sequence (Q14973 1-349): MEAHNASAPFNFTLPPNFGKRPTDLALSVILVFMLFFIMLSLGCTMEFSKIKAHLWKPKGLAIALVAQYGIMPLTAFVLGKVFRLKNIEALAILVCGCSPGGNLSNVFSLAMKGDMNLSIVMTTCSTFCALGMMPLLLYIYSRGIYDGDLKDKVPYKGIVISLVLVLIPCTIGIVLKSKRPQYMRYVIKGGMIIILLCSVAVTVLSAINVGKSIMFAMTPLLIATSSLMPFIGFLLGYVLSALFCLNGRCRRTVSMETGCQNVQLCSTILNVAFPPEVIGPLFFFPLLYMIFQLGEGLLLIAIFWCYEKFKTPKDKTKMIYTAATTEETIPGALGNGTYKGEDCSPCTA

[2] = biological target: T2, MATE1 (Homo sapiens, UniProt Q96FL8); test: Transporter inhibition assay, MATE1
T2 sequence (Q96FL8 1-570): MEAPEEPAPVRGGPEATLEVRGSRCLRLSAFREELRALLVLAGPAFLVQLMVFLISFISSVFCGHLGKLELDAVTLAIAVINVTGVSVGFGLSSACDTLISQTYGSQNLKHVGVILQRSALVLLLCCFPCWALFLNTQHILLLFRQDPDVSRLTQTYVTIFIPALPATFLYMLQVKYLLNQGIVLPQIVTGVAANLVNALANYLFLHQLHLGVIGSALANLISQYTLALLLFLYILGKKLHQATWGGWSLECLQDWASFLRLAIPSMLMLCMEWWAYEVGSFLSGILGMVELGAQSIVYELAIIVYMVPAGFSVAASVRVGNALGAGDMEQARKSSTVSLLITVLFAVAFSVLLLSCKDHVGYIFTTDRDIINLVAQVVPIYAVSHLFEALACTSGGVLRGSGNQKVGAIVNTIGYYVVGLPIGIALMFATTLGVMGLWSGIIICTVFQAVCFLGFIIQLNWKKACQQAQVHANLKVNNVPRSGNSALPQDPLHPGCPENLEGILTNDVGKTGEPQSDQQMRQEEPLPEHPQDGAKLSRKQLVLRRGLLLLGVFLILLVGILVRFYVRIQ

[3] = biological target: T3, OATP1B1 (Homo sapiens, UniProt Q9Y6L6); test: Transporter inhibition assay, OATP1B1; details: for inhibition at 100 μM: cell line (HEK293 or MDCKII) stably expressing OATP1B1
T3 sequence (Q9Y6L6 1-691): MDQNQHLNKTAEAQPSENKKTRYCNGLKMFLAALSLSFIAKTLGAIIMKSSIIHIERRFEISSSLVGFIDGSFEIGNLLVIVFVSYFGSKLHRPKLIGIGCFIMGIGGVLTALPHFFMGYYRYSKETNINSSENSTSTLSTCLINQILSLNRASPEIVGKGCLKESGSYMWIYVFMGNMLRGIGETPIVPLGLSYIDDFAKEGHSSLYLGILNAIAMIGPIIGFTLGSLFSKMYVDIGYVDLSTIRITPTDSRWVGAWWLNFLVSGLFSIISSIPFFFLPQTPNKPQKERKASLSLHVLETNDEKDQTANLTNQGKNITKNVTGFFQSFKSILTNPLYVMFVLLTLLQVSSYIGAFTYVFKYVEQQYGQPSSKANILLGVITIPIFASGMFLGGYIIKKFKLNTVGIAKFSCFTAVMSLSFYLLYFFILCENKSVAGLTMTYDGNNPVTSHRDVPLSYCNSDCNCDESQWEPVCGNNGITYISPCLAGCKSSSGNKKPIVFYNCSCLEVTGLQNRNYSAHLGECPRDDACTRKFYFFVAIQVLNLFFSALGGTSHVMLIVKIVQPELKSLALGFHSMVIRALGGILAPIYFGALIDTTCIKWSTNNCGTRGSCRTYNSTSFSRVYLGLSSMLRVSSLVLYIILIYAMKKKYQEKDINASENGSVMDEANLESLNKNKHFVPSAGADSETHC

[4] = biological target: T4, OATP1B3 (Homo sapiens, UniProt Q9NPD5); test: Transporter inhibition assay, OATP1B3; format: cell-based; details: cell line (HEK293 or MDCKII) stably expressing OATP1B3
T4 sequence (Q9NPD5 1-702): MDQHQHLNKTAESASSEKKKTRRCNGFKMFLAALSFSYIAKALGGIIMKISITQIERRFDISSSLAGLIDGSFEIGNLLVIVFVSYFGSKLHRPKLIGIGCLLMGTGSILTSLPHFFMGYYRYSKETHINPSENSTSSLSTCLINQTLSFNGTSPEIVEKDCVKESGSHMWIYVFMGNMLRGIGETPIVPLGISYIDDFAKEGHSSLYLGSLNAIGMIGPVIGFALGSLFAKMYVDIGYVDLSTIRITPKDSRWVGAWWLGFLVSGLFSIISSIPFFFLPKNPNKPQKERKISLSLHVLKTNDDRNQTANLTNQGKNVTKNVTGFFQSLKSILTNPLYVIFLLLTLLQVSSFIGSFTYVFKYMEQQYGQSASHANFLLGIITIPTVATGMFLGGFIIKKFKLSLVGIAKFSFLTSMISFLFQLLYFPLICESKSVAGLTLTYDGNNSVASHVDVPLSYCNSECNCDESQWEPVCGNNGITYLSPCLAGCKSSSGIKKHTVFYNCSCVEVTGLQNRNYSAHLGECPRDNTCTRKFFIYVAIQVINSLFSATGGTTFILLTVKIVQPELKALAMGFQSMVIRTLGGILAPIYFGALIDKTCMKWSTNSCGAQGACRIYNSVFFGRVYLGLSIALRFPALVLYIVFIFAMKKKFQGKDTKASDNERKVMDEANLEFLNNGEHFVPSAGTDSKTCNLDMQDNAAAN

[5] = biological target: P-gp (Homo sapiens, UniProt P08183); test: Transporter inhibition assay, P-gp; format: biochemical
Chain of P-gp (P08183 whole entry): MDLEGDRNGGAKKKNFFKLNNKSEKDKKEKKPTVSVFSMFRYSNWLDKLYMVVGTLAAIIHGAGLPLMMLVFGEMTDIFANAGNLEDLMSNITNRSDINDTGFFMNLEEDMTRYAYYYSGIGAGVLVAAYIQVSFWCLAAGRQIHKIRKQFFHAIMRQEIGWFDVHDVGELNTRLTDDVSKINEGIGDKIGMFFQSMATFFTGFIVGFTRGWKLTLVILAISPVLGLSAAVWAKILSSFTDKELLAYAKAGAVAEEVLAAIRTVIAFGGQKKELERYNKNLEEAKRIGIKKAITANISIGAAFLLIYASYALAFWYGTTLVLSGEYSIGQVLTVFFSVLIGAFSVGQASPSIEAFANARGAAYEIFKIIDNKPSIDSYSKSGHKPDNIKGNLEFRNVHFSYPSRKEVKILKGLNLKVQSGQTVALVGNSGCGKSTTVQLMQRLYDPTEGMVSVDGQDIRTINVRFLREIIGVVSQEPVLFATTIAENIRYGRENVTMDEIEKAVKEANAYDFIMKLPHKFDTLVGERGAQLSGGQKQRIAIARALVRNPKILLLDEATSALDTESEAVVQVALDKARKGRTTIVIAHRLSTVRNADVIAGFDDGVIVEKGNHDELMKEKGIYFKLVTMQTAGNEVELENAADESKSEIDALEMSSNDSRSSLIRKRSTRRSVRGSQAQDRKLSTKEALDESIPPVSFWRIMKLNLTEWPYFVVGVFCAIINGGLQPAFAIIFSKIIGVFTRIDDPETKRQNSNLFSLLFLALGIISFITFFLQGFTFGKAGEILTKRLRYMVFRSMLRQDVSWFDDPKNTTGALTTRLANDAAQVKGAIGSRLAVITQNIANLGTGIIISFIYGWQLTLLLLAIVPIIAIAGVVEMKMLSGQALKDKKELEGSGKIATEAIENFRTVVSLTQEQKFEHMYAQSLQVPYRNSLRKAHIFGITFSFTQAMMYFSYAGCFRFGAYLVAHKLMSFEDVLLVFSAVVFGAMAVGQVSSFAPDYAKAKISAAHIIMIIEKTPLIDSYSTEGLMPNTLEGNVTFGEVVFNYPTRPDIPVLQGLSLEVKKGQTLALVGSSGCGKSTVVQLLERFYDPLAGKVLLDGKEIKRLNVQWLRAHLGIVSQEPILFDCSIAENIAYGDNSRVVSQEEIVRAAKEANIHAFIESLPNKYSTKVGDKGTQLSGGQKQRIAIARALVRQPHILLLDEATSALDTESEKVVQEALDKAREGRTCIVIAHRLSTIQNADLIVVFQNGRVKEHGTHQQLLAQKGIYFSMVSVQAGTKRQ

Row | IC50 ([2]; IC50, MATE1, isolated alkaloids, mean [95% CI], three technical replicates) | Structure (SMILES) | inhibition at the highest concentration tested [1] | IC50 ([2]; MATE1, isolated alkaloids, mean [95% CI], three technical replicates) | IC50 ([3]; OATP1B1, isolated alkaloids, mean [95% CI], three technical replicates) | inhibition at 100 μM [4] | inhibition at 100 μM [5] | IC50 [2] | inhibition at 100 μM [3]
1 | – | COc1ccc2c(c1OC)C(=O)O[C@@H]2[C@H]1c2cc3c(cc2CCN1C)OCO3 [(−)-β-Hydrastine, (1R,9S)-(−)-β-Hydrastine] | -- (inhibition not observed) | 110 µM | 120 µM | – | – | – | –
2 | – | CN1CCc2cc3c(cc2C1O)OCO3 (stereo not shown) [Hydrastinine, hydrastinine chloride monohydrate] | -- (inhibition not observed) | – | – | < 20% | < 20% | 82 µM | < 20%
3 | < 1 µM and 0.73 µM | COc1ccc2cc3[n+](cc2c1OC)CCc1cc2c(cc1-3)OCO2 [Berberine, berberine chloride] | -- (inhibition not observed) | – | – | < 20% | < 20% | – | < 20%
